Assay results reported in PubChem BioAssay AID488890 (Southern Research Specialized Biocontainment Screening …, 2010).
Results filed as inconclusive are left out. Activity calls are given as the source filed them. How the calls were made is not given here.

System: Mycobacterium tuberculosis non-replicating, growth inhibition
Experiment: growth inhibition of non-replicating M. tuberculosis (AID 488890)

Row | Compound | IC50
1 | N=c1n(CCN2CCCCC2)c2ccccc2n1CC(=O)c1ccc(Cl)c(Cl)c1 | 21.5 µM (inactive)
2 | O=C(COC(=O)c1ccc(Cl)s1)c1ccc[nH]1 | 6.38 µM
3 | CCn1c(=O)c(C(=O)Nc2ncccc2C)c(O)c2ccccc21 | 9.94 µM
4 | Cc1cc(C)c(OCC(=O)Nc2nnc(-c3ccco3)o2)c(C)c1 | 45.3 µM (inactive)
5 | Cc1ccc(-n2c(C)cc(C3=NNC(=NC4CC4)SC3)c2C)cc1C | 7.03 µM
6 | CNCc1ccccc1Sc1cc(O)ccc1O | 5.19 µM
7 | CCOC(=O)C1CSC(CC(=O)Nc2ccc(Cl)c(Cl)c2)C(=O)N1 (stereo unspecified) | 10.7 µM (inactive)
8 | O=C(NNC(=O)C12CC3CC(CC(C3)C1)C2)c1ccccn1 | 6.79 µM
9 | COc1ccc(C(=O)CCNc2ccc(F)cc2)cc1 | 5.22 µM
10 | O=C(COC(=O)CCC(=O)c1ccc(F)cc1)Nc1ccc(F)cc1F | 24.6 µM (inactive)
11 | Clc1ccc2c(c1)C(N1CCNCC1)Cc1ccccc1S2 (stereo unspecified) | 15.2 µM (inactive)
12 | O=C(CC1CC2CCC1C2)NCc1cccs1 (stereo unspecified) | 1.69 µM
13 | O=C(Nc1nc2ccccc2n1CCN1CCCC1)C1CCCCC1 | 17.8 µM (inactive)
14 | O=C(COc1ccccc1)Nc1nnc(-c2ccc3c(c2)CCCC3)o1 | 0.9 µM
15 | O=C(COC(=O)CC12CC3CC(CC(C3)C1)C2)Nc1cccnc1Cl | 15.2 µM (inactive)
16 | N#Cc1ccc(CSc2nnc(-c3cccnc3)o2)cc1 | 11.5 µM (inactive)
17 | CN1C(c2ccccc2)CC(=NO)CC1c1ccccc1 (stereo unspecified) | 11.3 µM (inactive)
18 | O=C(OCc1ccc([N+](=O)[O-])cc1)c1cc2ccccc2oc1=O | 12.5 µM (inactive)
19 | CC(NC(=O)OCc1ccccc1)c1ccccc1 (stereo unspecified) | 0.82 µM
20 | COc1ccc(C(=O)NN/C(C)=C/C(=O)c2ccccc2)cc1 | 1.34 µM
21 | O=C(Nc1cccc([N+](=O)[O-])c1)C1COc2ccccc2O1 (stereo unspecified) | 21 µM (inactive)
